Literature values as cited in PMC11133798, “Vosoritide treatment for children with hypochondroplasia: a phase 2 trial” (eClinicalMedicine, 2024).
No end group written: not given here.

Columns and labels:
[1] = tested on: children with hypochondroplasia; conditions: cited from earlier work
From the text: As there are no currently approved medications for hypochondroplasia, recombinant human growth hormone (rhGH) has been used off-label in patients with hypochondroplasia with variable efficacy. To date, there are no controlled trials of rhGH in children with hypochondroplasia. […] However, growth velocity slowed substantially after the first year resulting in a total increase in height ...

[2] = tested on: mouse model with Braf mutation (p.Q241R); conditions: CNP administration; ref 28 (protocol list); cited from earlier work
[3] = tested on: mice deficient in Nf1 in type II collagen producing cells; conditions: daily injections of CNP; ref 27 (protocol list); cited from earlier work
[4] = tested on: rat chondrosarcoma cell lines, NPR2 heterozygous knock out; conditions: ref 23 (protocol list); cited from earlier work
From the text: (§1) Our group identified pathogenic mutations in NPR2 in ~2% of ~400 patients presenting with short stature 22. The degree of short stature ...

[5] = tested on: rat chondrosarcoma cell lines, NPR2 homozygous knock out; conditions: ref 23 (protocol list); cited from earlier work
From the text: as §1

rat chondrosarcoma cells = conditions: CNP treatment; ref 36 (protocol list); cited from earlier work
From the text: Individuals with heterozygous defects in Aggrecan present with dominantly inherited short stature often with advanced bone ages and premature growth cessation 32,33.

L613V/+ mice = conditions: by 2 weeks of treatment; catch up began after 1 week; ref 26 (protocol list); cited from earlier work
From the text: They then proceeded to give these mice a MEK inhibitor.

[6] = meta-analysis of 7 studies, 113 children with hypochondroplasia

In the case of “rhGH: recombinant human growth hormone used off-label in hypochondroplasia”, the Body disproportion ([1]; higher dose of rhGH, after three years of treatment) is listed as “significant worsening of body disproportion”, the “Mean first year increase in height SDS” value [1, 6] is listed as 0.41 SD and the “Total increase in height after 3 years” value [1, 6] is listed as 0.61 SD.
For “CNP: endogenous C-type natriuretic peptide, ligand of NPR-B (GLSKGCFGLKLDRIGSMSGLGC; ends and bridges not checked; cysteine pairing not given here; UniProt P23582 105-126, looked up)”, the Body length [2] is listed as “increases in body length”, the “ERK phosphorylation and stature” value [3] is listed as “decreased ERK phosphorylation and corrected the short stature” and the “CNP concentration generating cGMP sufficient to activate downstream protein kinase G signaling” value [4] is listed as greater than 0.163 nM. For the same compound, the “cGMP response to CNP” value [5] was “absolutely no” and the “Extracellular matrix after FGF2 administration” value (rat chondrosarcoma cells) was “rescue the loss of extracellular matrix”.
For O=C(NOC[C@H](O)CO)c1ccc(F)c(F)c1Nc1ccc(I)cc1F [PD0325901], the Body length (L613V/+ mice) is given as “the same length as untreated WT mice”.
